Measurements reported in article PMC11649115, “In vitro safety evaluation of dopamine D3R antagonist, R-VK4-116, as a potential medication for the treatment of opioid use disorder” (PLOS ONE, 2024).

Assays:
cardiovascular effects = conditions: dogs ref 4, 9; cited from earlier work
CYP2C8 [1] = biological target: T1, CYP2C8 (Homo sapiens, UniProt P10632); assay: in vitro; conditions: microsomes
T1 sequence (P10632 1-490): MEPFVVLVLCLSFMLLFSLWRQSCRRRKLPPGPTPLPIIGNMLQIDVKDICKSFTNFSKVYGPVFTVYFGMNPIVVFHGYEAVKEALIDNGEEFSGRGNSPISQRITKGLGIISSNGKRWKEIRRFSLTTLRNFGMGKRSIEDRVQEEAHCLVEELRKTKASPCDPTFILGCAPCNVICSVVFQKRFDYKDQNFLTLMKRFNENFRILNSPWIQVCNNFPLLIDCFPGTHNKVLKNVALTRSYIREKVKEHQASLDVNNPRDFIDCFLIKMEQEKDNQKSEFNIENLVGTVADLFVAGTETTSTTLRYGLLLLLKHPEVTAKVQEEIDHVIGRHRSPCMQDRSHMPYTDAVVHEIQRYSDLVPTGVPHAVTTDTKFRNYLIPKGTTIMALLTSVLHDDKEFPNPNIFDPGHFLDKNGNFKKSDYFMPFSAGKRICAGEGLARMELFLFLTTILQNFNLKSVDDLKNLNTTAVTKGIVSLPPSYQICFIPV

CYP2C19 = CYP2C19 (Homo sapiens, UniProt P33261); assay: CYP inhibition in human liver microsomes; conditions: human, human liver microsomes, probe mephenytoin
CYP3A4 = CYP3A4 (Homo sapiens, UniProt P08684); assay: in vitro; conditions: microsomes
CYP2C9 = CYP2C9 (Homo sapiens, UniProt P11712); assay: CYP inhibition in human liver microsomes; conditions: human, human liver microsomes, probe diclofenac
CYP2B6 = biological target: T2, CYP2B6 (Homo sapiens, UniProt P20813); assay: CYP inhibition in human liver microsomes; conditions: human, human liver microsomes, probe bupropion
T2 sequence (P20813 1-491): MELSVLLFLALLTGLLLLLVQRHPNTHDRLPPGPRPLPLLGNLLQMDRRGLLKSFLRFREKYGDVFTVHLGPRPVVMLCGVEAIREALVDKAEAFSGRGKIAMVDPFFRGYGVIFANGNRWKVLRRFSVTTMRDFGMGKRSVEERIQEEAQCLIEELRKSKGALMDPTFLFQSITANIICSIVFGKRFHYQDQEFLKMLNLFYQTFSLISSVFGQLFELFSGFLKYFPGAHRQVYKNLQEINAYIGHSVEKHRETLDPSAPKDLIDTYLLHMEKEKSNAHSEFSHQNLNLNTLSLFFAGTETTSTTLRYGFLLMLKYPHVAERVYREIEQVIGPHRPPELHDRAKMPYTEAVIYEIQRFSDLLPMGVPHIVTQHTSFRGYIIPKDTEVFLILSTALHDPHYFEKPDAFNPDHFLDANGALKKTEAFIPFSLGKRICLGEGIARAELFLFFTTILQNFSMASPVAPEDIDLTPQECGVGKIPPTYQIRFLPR

CYP1A2 [2] = biological target: T3, CYP1A2 (Homo sapiens, UniProt P05177); assay: CYP inhibition in human liver microsomes; conditions: human, human liver microsomes, probe phenacetin
T3 sequence (P05177 1-516): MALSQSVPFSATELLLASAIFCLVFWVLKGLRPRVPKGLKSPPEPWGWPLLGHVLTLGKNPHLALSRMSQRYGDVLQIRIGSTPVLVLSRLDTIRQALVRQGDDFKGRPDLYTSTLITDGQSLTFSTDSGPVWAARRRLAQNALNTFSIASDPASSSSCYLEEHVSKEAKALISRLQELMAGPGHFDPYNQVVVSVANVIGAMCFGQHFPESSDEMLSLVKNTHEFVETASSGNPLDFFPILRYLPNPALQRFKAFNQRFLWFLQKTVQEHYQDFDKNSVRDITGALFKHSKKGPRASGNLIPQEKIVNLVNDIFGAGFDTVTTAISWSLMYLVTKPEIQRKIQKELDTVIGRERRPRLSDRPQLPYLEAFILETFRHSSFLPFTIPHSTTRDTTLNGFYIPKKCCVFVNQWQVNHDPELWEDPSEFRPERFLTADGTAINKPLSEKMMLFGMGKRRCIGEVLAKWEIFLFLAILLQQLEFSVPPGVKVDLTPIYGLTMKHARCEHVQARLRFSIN

CYP2D6 = CYP2D6 (Homo sapiens, UniProt P10635); assay: CYP inhibition in human liver microsomes; conditions: human, human liver microsomes, probe bufuralol
MATE1 = biological target: T4, MATE1 (Homo sapiens, UniProt Q96FL8); assay: Transporter mediated assay (substrate/inhibitor), MDCK-II cells; format: in vitro ADME; conditions: human, polarized monolayer of MDCK-II cells expressing MATE1; MATE1, No BSA, 100 μM
T4 construct: expressed in transfected cells; host or cells: MDCK-II cells
T4 sequence (Q96FL8 1-570): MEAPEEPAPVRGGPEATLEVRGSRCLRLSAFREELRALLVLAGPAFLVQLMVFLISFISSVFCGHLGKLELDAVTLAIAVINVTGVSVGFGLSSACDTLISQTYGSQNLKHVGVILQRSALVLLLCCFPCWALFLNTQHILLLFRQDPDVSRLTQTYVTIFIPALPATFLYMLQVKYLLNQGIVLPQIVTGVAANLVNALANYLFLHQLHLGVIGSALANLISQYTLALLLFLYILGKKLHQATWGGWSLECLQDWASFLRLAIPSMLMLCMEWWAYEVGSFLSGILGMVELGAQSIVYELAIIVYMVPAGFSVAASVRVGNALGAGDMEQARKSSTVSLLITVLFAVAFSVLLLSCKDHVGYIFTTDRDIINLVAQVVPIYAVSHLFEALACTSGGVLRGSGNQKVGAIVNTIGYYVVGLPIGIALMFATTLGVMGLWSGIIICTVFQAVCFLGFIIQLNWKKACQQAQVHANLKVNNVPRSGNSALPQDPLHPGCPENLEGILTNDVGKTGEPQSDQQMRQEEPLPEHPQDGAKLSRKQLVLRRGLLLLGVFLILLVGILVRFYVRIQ

MATE2-K = biological target: T5, MATE2-K (Homo sapiens, UniProt Q86VL8); assay: as above; format: in vitro ADME; conditions: human, polarized monolayer of MDCK-II cells expressing MATE2-K, No BSA, 100 μM
T5 construct: expressed in transfected cells; host or cells: MDCK-II cells

CYP2C8 [3] = biological target: T1, CYP2C8; assay: CYP inhibition in human liver microsomes; conditions: human, human liver microsomes, probe paclitaxel
CYP1A2 [4] = biological target: T3, CYP1A2; assay: in vitro; conditions: microsomes
[5] = CYP activity (% of Control) 3A4 (Midazolam)
[6] = CYP activity (% of Control) 3A4 (Testosterone)

Sequence of CYP3A4 (P08684 2-503): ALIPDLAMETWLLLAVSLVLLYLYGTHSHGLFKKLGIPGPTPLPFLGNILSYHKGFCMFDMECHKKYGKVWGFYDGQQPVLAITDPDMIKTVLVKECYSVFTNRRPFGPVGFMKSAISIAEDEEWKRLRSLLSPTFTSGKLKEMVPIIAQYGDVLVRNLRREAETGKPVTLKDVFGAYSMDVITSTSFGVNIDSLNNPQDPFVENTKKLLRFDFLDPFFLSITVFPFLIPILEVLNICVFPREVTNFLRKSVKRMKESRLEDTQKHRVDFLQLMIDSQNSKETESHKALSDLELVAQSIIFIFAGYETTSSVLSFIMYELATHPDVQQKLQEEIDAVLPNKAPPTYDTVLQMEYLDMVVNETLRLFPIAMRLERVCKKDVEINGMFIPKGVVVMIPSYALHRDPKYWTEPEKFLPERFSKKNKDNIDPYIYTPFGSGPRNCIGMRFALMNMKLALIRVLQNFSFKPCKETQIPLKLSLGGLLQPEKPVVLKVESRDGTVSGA
Sequence of CYP2D6 (P10635 whole entry): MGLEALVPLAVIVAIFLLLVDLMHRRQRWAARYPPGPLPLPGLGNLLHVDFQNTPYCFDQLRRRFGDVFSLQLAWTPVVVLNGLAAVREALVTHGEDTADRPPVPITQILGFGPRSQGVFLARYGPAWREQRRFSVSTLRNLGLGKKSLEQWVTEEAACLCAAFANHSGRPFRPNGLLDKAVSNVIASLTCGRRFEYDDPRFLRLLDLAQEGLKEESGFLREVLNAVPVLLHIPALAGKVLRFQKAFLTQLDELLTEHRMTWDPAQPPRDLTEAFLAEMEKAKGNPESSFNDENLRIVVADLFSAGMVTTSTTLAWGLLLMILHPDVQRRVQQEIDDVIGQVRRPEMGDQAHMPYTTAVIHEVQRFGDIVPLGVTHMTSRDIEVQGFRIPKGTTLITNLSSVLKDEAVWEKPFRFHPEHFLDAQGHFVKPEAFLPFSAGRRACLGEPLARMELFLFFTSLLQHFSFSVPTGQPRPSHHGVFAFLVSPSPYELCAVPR
Sequence of CYP2C9 (P11712 whole entry): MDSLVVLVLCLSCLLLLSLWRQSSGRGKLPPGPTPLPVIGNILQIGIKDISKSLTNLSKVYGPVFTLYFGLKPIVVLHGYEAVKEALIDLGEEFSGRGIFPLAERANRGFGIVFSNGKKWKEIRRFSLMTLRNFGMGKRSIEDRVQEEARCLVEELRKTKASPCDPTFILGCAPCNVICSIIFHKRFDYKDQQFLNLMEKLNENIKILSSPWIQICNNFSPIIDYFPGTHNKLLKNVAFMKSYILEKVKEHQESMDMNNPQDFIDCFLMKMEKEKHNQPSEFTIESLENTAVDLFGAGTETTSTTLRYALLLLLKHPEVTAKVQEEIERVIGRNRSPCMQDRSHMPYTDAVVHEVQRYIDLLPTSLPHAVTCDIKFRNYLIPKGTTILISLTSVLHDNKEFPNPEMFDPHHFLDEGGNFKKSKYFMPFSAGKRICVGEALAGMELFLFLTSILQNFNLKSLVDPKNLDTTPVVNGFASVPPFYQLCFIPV
Sequence of CYP2C19 (P33261 whole entry): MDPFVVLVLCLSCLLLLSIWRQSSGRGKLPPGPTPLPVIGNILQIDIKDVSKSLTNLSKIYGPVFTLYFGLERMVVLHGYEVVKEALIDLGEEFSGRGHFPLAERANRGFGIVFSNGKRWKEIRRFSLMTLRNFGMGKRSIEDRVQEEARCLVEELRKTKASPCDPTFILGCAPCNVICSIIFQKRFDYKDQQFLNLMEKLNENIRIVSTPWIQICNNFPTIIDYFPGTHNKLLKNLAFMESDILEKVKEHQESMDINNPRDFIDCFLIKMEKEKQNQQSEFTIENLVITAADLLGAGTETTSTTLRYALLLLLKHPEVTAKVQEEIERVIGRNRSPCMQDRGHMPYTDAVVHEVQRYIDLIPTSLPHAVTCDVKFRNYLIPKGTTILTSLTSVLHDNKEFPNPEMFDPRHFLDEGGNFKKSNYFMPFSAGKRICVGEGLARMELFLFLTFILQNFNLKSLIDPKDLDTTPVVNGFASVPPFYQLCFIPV
T5 sequence (Q86VL8 1-566 isoform Q86VL8-3): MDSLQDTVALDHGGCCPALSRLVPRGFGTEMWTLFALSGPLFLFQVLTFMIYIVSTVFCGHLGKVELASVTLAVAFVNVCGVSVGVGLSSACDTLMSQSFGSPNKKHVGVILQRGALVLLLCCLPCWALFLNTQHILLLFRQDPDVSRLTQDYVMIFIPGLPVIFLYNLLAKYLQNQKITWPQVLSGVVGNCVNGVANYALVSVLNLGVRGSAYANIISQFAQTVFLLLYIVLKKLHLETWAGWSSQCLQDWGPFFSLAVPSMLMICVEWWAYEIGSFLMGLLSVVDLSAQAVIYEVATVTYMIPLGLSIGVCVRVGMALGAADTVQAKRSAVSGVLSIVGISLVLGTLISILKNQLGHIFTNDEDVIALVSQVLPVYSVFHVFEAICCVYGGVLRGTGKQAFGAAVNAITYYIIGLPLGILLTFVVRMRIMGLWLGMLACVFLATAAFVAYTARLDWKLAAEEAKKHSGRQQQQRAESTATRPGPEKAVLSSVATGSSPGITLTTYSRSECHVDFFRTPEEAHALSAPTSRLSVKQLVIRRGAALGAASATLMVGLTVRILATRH

Row | activity at 20 min, 10 µM (CYP2C8 [1]) [%] | activity at 20 min, 10 µM (CYP2C19) [%] | activity at 20 min, 10 µM (CYP3A4; [5]) [%] | activity at 20 min, 10 µM (CYP3A4; [6]) [%] | activity at 20 min, 10 µM (CYP2C9) [%] | activity at 20 min, 10 µM (CYP2B6) [%] | activity at 20 min, 10 µM (CYP1A2 [2]) [%] | activity at 20 min, 10 µM (CYP2D6) [%] | inhibition at 100 µM (MATE1) [%] | inhibition at 100 µM (MATE2-K) [%] | activity at 20 min, 10 µM (CYP2C8 [3]) [%] | activity at 20 min, 10 µM (CYP1A2 [4]) [%] | SMILES | cardiovascular effect in combination with cocaine (cardiovascular effects)
1 |  |  |  |  |  |  |  |  |  |  |  |  | Cc1ncoc1-c1nnc(SCCCN2C[C@@H]3C[C@]3(c3ccc(C(F)(F)F)cc3F)C2)n1C [GSK598,809] | hypertension
2 | 10.3 ± 0.7 | 105 ± 2 | 93.8 ± 3.9 | 93.1 ± 2 | 75.4 ± 0.9 | 90.5 ± 1.3 | 91 ± 1.8 | 88.4 ± 1.8 |  |  |  |  | CC(C)(O)c1ccccc1CC[C@@H](SCC1(CC(=O)O)CC1)c1cccc(/C=C/c2ccc3ccc(Cl)cc3n2)c1 [Montelukast] | 
3 |  |  |  |  |  |  |  |  | 99.3 ± 0.22 | 95.9 ± 0.59 |  |  | CN/C(=N/CCSCc1nc[nH]c1C)NC#N [cimetidine, reference compound] | 
4 |  | 94.3 ± 8.1 | 97.2 ± 4.7 | 95.1 ± 5.6 | 96.3 ± 1.4 | 97.3 ± 2.9 |  | 94.7 ± 1.1 |  |  | 89.9 ± 1.4 | 49 ± 5.3 | Cc1nc2c([nH]1)c(=O)n(C)c(=O)n2Cc1ccco1 [Furafylline] | 
